Reference: PubChem BioAssay (NCI)
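In this assay, cells in 96-well plates receive the compound at five concentrations for 48 hours. Endpoints are linearly interpolated between the surrounding concentrations. TGI marks complete inhibition of growth.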

Experiments:
Assay in all cases: NCI anticancer screen, dose series, 48 h
[1] = test system: 786-0 renal
[2] = test system: HT29 colon
[3] = test system: OVCAR-4 ovarian
[4] = test system: SK-MEL-28 melanoma
[5] = test system: SN12C renal
[6] = test system: SK-MEL-2 melanoma
[7] = test system: SNB-75 CNS
[8] = test system: TK-10 renal
[9] = test system: SK-OV-3 ovarian
[10] = test system: IGROV1 ovarian
[11] = test system: MOLT-4 leukemia
[12] = test system: EKVX NSCLC
[13] = test system: HCT-116 colon
[14] = test system: MDA-MB-231 breast
[15] = test system: NCI/ADR-RES ovarian
[16] = test system: SR leukemia
[17] = test system: MCF7 breast
[18] = test system: T-47D breast
[19] = test system: MDA-MB-435

SMILES	TGI [1] [µM]	TGI [2] [µM]	TGI [3] [µM]	TGI [4] [µM]	TGI [5] [µM]	TGI [6] [µM]	TGI [7] [µM]	TGI [8] [µM]	TGI [9] [µM]	TGI [10] [µM]	TGI [11] [µM]	TGI [12] [µM]	TGI [13] [µM]	TGI [14] [µM]	TGI [15] [µM]	TGI [16] [µM]	TGI [17] [µM]	TGI [18] [µM]	TGI [19] [µM]
CC1(Br)C(=O)NC(=O)N(C2CC(N=[N+]=[N-])C(CO)O2)C1N=[N+]=[N-] (stereo unspecified)	> 100	> 100	> 100	> 100	> 100	> 100	> 100	> 100	> 100	> 100	> 100	> 100	–	–	–	–	–	–	–
O=C1C[C@@H](Sc2ccccc2)C2(OCCO2)[C@H]2ON3CCC[C@@H]3[C@@H]12	4.83	2.86	19.6	23	7.52	13.3	–	19.3	27.9	4.87	8.7	–	2.99	7.67	31.2	10.4	17.2	8.75	10
CC(C)c1c(O[Si](C(C)C)(C(C)C)C(C)C)c2c3c(ccc4c3c1OC4(C)C)C(C)CC2 (stereo unspecified)	> 100	> 100	> 100	> 100	> 100	> 100	> 100	> 100	> 100	> 100	> 100	> 100	> 100	> 100	> 100	> 100	> 100	–	> 100
O=C1Oc2ccccc2C(=O)/C1=C/N1C(=O)N/C(=C\c2cccc(O)c2)C1=O	> 100	> 100	> 100	> 100	> 100	> 100	> 100	> 100	> 100	> 100	> 100	> 100	> 100	> 100	> 100	–	> 100	> 100	> 100
O=C(O)c1nc2ccccc2nc1Nc1ccc(F)cc1	> 100	> 100	> 100	> 100	–	76.5	81.8	> 100	–	> 100	> 100	> 100	> 100	–	> 100	91.1	74.8	> 100	> 100
COc1c(C)c(C/C=C(\C)CCCCO)c(OC)c(OC)c1OC	> 100	> 100	> 100	–	> 100	> 100	> 100	> 100	> 100	> 100	> 100	> 100	> 100	> 100	> 100	> 100	> 100	–	> 100
NCCCCN(CCCN)Cc1ccccc1	> 100	> 100	> 100	> 100	> 100	> 100	> 100	> 100	> 100	> 100	> 100	> 100	> 100	> 100	> 100	–	> 100	> 100	> 100
